The text below walks through data of patent US9163010B2, “Indolinone protein kinase inhibitors” (Beta Pharma, Inc., priority 2011, dated 2015).

For data set [1] the following is noted: cited from earlier work.
For data set [2], the target named is VEGFR-1 (Flt-1) (Homo sapiens (Human), UniProt P17948). Put plainly: Enzymatic activity, VEGFR-1 inhibition in vitro. To be noted: read-out: Enzymatic Activities IC50 VEGFR-1 (Flt-1) or VGFR1 FLT1. It is filed as biochemical.
For data set [3], the target named is VEGFR-2 KDR (Homo sapiens (Human), UniProt P35968). The experiment in a line: Enzymatic activity, VEGFR-2 inhibition in vitro. Type of data set: biochemical. To be noted: read-out: Enzymatic Activities IC50 VEGFR-2 KDR or VGFR2 KDR.
The target in data set [4] is VEGFR-3 (Flt-4) (Homo sapiens (Human), UniProt P35916). Put plainly: Enzymatic activity, VEGFR-3 inhibition in vitro. It is filed as biochemical.

SMILES strings stand for the structures.

VEGFR-1 (Flt-1), sequence (P17948 27-1338): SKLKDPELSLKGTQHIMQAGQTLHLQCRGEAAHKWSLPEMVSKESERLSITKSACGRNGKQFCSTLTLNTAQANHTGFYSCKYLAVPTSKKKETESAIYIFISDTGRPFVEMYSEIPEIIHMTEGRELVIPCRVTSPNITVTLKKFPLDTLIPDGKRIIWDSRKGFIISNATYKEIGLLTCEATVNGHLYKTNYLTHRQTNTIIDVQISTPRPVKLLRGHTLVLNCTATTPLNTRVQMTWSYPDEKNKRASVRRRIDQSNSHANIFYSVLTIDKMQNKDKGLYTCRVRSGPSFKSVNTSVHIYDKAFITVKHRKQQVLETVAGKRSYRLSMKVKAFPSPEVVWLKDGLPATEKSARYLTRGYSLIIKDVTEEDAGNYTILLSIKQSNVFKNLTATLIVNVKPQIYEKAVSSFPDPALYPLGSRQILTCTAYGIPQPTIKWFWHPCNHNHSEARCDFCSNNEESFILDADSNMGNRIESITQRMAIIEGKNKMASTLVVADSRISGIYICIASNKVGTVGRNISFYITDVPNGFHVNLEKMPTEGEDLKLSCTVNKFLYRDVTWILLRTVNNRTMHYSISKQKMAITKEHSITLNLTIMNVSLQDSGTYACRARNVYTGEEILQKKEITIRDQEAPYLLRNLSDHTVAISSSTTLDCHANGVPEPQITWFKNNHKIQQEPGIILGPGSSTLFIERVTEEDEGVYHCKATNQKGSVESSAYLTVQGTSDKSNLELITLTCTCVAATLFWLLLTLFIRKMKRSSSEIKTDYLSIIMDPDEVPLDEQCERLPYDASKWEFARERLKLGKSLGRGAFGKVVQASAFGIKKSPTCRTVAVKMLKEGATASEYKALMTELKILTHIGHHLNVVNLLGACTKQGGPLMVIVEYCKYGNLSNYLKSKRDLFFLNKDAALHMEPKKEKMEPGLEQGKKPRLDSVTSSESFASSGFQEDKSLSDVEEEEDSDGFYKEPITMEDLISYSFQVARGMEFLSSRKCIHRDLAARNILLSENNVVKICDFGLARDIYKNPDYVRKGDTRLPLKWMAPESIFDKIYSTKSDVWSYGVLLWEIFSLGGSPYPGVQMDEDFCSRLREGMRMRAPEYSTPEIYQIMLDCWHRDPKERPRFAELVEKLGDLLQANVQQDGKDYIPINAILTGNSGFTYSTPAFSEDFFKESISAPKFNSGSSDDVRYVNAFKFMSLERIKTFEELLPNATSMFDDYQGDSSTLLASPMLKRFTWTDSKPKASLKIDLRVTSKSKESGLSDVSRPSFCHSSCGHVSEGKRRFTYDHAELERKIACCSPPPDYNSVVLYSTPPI
VEGFR-3 (Flt-4), sequence (P35916 25-1363): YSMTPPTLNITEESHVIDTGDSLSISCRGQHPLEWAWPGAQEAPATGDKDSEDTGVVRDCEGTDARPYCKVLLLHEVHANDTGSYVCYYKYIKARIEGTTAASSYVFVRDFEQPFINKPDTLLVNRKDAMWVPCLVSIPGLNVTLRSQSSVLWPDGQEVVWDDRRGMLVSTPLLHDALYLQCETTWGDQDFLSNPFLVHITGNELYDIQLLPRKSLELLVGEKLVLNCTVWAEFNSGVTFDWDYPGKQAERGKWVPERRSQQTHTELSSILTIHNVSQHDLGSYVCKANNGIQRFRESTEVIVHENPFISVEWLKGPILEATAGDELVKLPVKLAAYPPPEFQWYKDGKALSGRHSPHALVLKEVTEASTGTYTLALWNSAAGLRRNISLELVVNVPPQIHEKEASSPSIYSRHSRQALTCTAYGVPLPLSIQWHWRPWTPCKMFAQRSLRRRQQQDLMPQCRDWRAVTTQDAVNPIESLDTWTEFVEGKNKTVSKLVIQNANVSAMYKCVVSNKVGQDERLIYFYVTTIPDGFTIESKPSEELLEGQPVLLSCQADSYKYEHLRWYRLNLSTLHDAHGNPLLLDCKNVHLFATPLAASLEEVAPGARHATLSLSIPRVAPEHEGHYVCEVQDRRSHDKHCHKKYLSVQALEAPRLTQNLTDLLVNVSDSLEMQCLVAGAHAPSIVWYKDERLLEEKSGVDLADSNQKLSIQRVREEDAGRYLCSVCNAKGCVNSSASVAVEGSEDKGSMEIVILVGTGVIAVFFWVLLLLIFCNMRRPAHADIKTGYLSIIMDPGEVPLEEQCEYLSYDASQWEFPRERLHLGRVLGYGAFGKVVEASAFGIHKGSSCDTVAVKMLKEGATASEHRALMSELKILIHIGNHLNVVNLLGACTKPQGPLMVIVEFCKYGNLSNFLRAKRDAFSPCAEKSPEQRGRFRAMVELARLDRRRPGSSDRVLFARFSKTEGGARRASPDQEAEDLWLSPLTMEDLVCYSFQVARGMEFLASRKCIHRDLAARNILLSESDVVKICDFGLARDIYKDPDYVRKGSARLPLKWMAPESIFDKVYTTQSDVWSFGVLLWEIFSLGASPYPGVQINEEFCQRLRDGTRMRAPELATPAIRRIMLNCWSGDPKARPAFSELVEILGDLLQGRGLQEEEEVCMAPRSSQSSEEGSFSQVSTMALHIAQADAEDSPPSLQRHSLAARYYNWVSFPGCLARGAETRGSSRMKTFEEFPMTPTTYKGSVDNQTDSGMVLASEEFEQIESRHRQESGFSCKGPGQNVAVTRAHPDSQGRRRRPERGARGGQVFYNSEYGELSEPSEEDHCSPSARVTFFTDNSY
VEGFR-2 KDR, sequence (P35968 20-1356): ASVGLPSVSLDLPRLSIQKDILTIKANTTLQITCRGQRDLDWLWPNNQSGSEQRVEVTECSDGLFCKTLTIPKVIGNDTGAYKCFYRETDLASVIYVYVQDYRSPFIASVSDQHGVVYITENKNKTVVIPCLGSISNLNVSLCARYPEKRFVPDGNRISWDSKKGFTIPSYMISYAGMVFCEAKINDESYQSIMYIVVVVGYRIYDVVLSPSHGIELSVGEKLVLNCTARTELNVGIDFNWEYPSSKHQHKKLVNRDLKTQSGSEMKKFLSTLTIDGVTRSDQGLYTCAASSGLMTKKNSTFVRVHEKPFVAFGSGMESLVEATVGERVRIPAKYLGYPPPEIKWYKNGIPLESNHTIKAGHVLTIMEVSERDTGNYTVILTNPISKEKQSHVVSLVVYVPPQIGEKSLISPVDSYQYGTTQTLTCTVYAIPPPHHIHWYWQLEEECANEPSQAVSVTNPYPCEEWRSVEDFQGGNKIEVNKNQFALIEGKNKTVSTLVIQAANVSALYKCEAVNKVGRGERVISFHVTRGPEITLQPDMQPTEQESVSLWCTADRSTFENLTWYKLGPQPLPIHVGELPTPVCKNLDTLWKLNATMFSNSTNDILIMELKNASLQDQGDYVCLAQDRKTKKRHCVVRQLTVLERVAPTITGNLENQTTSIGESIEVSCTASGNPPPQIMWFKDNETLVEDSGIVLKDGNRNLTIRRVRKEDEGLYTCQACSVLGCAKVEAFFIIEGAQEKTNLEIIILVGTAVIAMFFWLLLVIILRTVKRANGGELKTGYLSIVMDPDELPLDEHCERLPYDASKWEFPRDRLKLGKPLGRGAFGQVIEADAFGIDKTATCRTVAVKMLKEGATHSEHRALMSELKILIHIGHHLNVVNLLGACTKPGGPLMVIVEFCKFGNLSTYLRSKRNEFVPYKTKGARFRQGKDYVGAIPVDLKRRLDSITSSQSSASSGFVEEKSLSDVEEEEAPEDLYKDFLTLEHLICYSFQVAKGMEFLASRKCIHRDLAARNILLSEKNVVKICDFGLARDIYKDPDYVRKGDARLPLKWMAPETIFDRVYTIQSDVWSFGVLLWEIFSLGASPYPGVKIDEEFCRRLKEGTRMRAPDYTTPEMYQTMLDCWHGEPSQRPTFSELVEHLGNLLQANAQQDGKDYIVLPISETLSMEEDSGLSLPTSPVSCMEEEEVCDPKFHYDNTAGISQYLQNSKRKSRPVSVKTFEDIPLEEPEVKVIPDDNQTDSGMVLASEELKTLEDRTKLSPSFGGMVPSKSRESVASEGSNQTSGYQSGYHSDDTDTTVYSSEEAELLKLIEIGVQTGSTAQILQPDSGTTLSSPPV

In the case of `CCN(CC)CCNC(=O)c1c(C)[nH]c(/C=C2\C(=O)Nc3ccc(F)cc32)c1C` [Sunitinib, sunitinib], the “Patients in whom dose reductions were required to manage toxicities” value in data set [1] (patients studied in RCC) is on record as 50%. Moreover, the “Serious (grade 3 or 4) adverse events, share of patients” value in data set [1] (sunitinib therapy, patients) was “up to 10%”.
Regarding `Cc1[nH]c(/C=C2\C(=O)Nc3ccc(F)cc32)c(C)c1C(=O)N1CCOCCOCCOCC1` [Formula II], the figures for the IC50 in data set [2] and in data set [3] were 40 nM and 2.5 nM, respectively. Besides, in data set [4], the “Enzymatic Activities IC50 VEGFR-3 (Flt-4) or VGFR3 FLT4” value is reported as “No Inhibition”.
